Experimental findings from US9120814B2, “Compounds with embedded benzopyran motif for core structures and preparation method thereof” (SNU R&DB FOUNDATION, priority 2006, dated 2015) are described below.

Assay [1] has as its target T1, RAR-related orphan receptor α (RORα) (Homo sapiens, UniProt P35398).
T1 sequence (P35398 1-523): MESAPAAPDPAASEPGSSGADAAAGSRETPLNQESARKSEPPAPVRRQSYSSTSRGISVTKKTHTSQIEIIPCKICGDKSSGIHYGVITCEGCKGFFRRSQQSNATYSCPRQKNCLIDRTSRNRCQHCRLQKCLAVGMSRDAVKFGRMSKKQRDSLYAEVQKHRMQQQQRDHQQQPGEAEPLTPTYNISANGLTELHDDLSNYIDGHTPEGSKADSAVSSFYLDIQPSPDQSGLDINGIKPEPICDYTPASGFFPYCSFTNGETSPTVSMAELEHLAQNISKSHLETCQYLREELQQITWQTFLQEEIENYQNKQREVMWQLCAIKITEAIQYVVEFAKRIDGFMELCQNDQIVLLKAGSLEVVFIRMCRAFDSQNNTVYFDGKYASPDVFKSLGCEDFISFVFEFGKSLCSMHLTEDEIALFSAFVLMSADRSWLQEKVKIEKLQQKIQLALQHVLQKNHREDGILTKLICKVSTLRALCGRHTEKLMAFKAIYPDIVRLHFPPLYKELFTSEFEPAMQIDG
Put plainly: Agonistic effect on RORα.

Another assay relates to U266 myeloma cell. The assay can be described thus: Cell viability, CCK-8 assay, U266. As to conditions: Homo sapiens, U-266; U266 cells, 72 hr treatment; read-out: IC50 (after 72 hr treatment) U266. The format is cell-based. Here is the method: (§1) The human cancer cell line (A549 lung carcinoma cell, Hela adenocarcinoma cell, U266 myeloma cell) was obtained from American Type Culture Collection (Manassas, Va. USA) and maintained in complete medium [RPMI. 1640 supplemented with heat-inactivated 10% FBS (USP, Austin, Tex., USA) and with 1% antibiotic-antimycotic solution (USP, Austin, Tex., USA)]. The cells were maintained in a humidified atmosphere of 5% CO2 and 95% air at 37° C., and cultured in T75 Flask (Nalge Nune International, Naperville, Ind., USA).
(§2) Cell viability was measured by a cell counting kit (CCK-8 assay, Dojindo, Tokyo, Japan), and the experimental procedure is based on the manufacturer's manual. The cells were cultured into 96-well plates at a density of 2×10^4 cells/well for 24 hours, followed by the treatment of the compounds of the present invention at various concentrations. […] Louis, Mo., USA)) was added to each well, and plates were incubated for additional 2 hours at 37° C. The absorbance of each well at 450 nm was measured with a reference at 630 nm using a Bio-Tek model ELx800™ microplate reader (Bio-Tek Instruments, Inc., Winooski, Vt., USA). The percentage of cell viability was calculated by following Mathematical Equation 1. […]
(In general: Tetrazolium assays rely on reduction of a dye to a coloured formazan, in cell work by metabolically active cells.)

The test system of the next assay is A549 lung carcinoma cell. The assay can be described thus: Cell viability, CCK-8 assay, A549. Format: cell-based. As to conditions: Homo sapiens; A549 cells, 72 hr treatment; read-out: IC50 (after 72 hr treatment) A549. Here is the method: as §1, §2
In the next assay the test system is Hela adenocarcinoma cell. Put plainly: Cell viability, CCK-8 assay, Hela. The format is cell-based. The settings on record: Homo sapiens; Hela cells, 72 hr treatment; read-out: IC50 (after 72 hr treatment) Hela. As for the experimental part:
as §1, §2

The subject of assay [2] is androgen receptor (AR) target gene. The assay can be described thus: RT-PCR of androgen receptor target gene mRNA (FIG. 2). Format: cell-based.
Assay [3] deals with prostate specific antigen (PSA) as a target protein of androgen receptor. Put plainly: Western blot of PSA expression in LNCaP cells (FIG. 1). Format: cell-based. As to conditions: LNCaP androgen-dependent human prostate cancer cell line; compared with bicalutamide. For orientation: Immunoblotting shows a protein as a band on a membrane.

The structures appear in SMILES notation.

In general, IC50 refers to the concentration at which inhibition is half-maximal. For the molecule `COc1ccc2c(c1O)OC(C)(C)C=C2c1ccc(Cl)cc1C` [Compound 95], the “agonistic effect of activating RORα” value in assay [1] is “agonistic effect”. Also, the figures for the IC50 in the assay on U266 myeloma cell, in the assay with A549 lung carcinoma cell and in the assay with Hela adenocarcinoma cell were 460 nM, 380 nM and 450 nM, respectively.
Turning to `O=C1C2C3=C(c4ccc(O)cc4OC34CCCC4)[C@@H](O)[C@H](c3ccccc3)C2C(=O)N1Cc1ccccc1` (some centres unmarked) [Compound 96], in assay [2], the “mRNA amount of NK3 transcription factor related, locus 1 (NKX3-1)” value is “decreasing”; the “mRNA amount of kallikrein-related peptidase 2 (KLK2)” value is recorded as “decreasing”; the “mRNA amount of prostate specific antigen (PSA)” value was “decreasing”. Besides, in assay [3], the “anticancer activity based on the expression amount of PSA (western blot)” value is recorded as “almost analogous to that of bicalutamide”.
